Patent US11986471B2, “Compounds and methods of use” (Tango Therapeutics, Inc., priority 2018, dated 2024)

Legend:
PRMT5 [1] = biological target: T1, PRMT5 (Homo sapiens, UniProt O14744); test: PRMT5 IC50 assay with no cofactor; assay type: biochemical
T1 construct: purchased Viva (custom protein)
In short: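 Cofactor-free, SAM and MTA formats; IC50 μM; Ki = IC50/1.5 for SAM, IC50/13.5 for MTA.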

HAP1 MTAP-deleted = test: SDMA in-cell western assay, HAP1 MTAP-deleted cell line; assay type: cell-based; settings: for IC50: Homo sapiens, HAP1 MTAP-deleted cell line; for MTAP Intact/Deleted Ratio: IC50 ratio HAP1 MTAP-intact / HAP1 MTAP-deleted
In short: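 In-cell western for SDMA marks; MTAP-deleted (null) HAP1 background; values given as IC50.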

PRMT5 [2] = biological target: T1, PRMT5; test: PRMT5 IC50 assay in the presence of SAM as cofactor; assay type: biochemical
In short: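 Three cofactor conditions are run: SAM-bound, MTA-bound and cofactor-free enzyme. IC50 is read from each; for the SAM and MTA arms it is divided by 1.5 and 13.5 respectively to give Ki.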

HAP1 MTAP-intact = test: SDMA in-cell western assay, HAP1 MTAP-intact cell line; assay type: cell-based; settings: Homo sapiens
In short: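 Using an MTAP-isogenic HAP1 cell pair, inhibition of SDMA formation is read by in-cell western and expressed as IC50. MTAP-selectivity is assigned where the ratio between lines reaches 3 fold or greater.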

PRMT5 [3] = biological target: T1, PRMT5; test: PRMT5 IC50 assay in the presence of MTA as cofactor; assay type: biochemical; settings: for IC50: PRMT5, MTA as cofactor
In short: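 Three cofactor conditions tested for PRMT5 inhibition: none, MTA and SAM, each giving an IC50. For conversion to Ki, the MTA-condition IC50 is divided by 13.5 and the SAM-condition IC50 by 1.5, and the two Ki values are expressed as a SAM/MTA ratio.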

[4] = ratio between the Ki in the presence of SAM and the Ki in the presence of MTA
[5] = ratio between Ki in the presence of SAM and Ki in the presence of MTA

T1 sequence (O14744 whole entry): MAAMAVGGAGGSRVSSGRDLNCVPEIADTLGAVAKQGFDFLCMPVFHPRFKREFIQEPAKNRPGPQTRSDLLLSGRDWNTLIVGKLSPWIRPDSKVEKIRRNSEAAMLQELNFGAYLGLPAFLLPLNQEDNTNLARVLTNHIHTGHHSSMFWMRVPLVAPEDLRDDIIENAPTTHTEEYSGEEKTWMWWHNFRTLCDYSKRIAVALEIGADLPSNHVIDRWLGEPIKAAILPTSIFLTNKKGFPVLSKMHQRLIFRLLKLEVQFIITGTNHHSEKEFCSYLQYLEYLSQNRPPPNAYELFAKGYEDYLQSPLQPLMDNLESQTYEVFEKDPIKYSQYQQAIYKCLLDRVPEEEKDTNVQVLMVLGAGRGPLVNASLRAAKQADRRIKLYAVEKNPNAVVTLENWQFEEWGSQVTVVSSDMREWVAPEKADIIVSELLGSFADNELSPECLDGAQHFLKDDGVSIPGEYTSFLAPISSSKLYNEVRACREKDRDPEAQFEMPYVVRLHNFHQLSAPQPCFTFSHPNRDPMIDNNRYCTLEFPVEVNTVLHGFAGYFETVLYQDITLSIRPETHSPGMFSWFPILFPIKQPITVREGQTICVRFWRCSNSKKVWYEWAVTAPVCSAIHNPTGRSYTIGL
T1 sequence (Q9BQA1 whole entry partner): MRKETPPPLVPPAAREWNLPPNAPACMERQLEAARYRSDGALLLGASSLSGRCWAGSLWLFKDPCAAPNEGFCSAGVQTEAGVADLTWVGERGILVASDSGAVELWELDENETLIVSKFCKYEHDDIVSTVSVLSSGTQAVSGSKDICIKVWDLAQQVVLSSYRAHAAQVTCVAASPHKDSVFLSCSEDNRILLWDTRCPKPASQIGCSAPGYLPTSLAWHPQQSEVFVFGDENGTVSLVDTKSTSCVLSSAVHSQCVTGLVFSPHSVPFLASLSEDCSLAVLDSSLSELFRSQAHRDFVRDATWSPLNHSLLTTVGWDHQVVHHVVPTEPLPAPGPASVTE

| SMILES | IC50 (PRMT5 [1]) | IC50 (HAP1 MTAP-deleted) | MTAP Intact/Deleted Ratio (HAP1 MTAP-deleted) | IC50 (PRMT5 [2]) | IC50 (HAP1 MTAP-intact) | IC50 (PRMT5 [3]) | SAM/MTA Ratio (PRMT5 [3]; [4]) | IC50 (PRMT5 [1]; read-out: No Co-factor IC50) | SAM/MTA Ratio (PRMT5 [3]; [5]) |
| --- | --- | --- | --- | --- | --- | --- | --- | --- | --- |
| CC(=O)N1CCC(Nc2cc(C(=O)NC[C@H](O)CN3CCc4cc(OCc5ocnc5C)c(F)cc4C3)ncn2)CC1 [Compound 576, 6-[(1-acetyl-4-piperidyl)amino]-N-[(2S)-3-[7-fluoro-6-[(4-methyloxazol-5-yl)methoxy]-3N-dihydro-1H-isoquinolin-2-yl]-2-hydroxy-propyl]pyrimidine-4-carboxamide] | 500 to 5000 nM | 1000 to 10000 nM | B* (an IC50 ratio greater than or equal to 3 fold but lower than 10 fold between the IC50 in the HAP1 MTAP-intact cell line and the HAP1 MTAP-deleted cell line) | 50 to 500 nM | 1000 to 10000 nM | 50 to 500 nM | A (a Ki ratio greater than or equal to 10 fold between the Ki in the presence of SAM and the Ki in the presence of MTA) | – | – |
| CC(C)(C)N1CCN(c2cc(C(=O)NC[C@H](O)CN3CCc4c(ccc(OCc5cnco5)c4Cl)C3)cc(NC3CCC3)n2)CC1 [Compound 319, (S)-2-(4-(tert-butyl)piperazin-1-yl)-N-(3-(5-chloro-6-(oxazol-5-ylmethoxy)-3N-dihydroisoquinolin-2(1H)-yl)-2-hydroxypropyl)-6-(cyclobutylamino)isonicotinamide] | – | ≥ 10000 nM | C* (an IC50 ratio of less than 3 fold between the IC50 in the HAP1 MTAP-intact cell line and the HAP1 MTAP-deleted cell line) | 50 to 500 nM | ≥ 10000 nM | 50 to 500 nM | – | 500 to 5000 nM | A (a Ki ratio greater than or equal to 10 fold between the Ki in the presence of SAM and the Ki in the presence of MTA) |
| CC(=O)N1CCC(Nc2cc(C(=O)NC[C@H](O)CN3CCc4nc(OCc5ocnc5C)ccc4C3)ncn2)CC1 [Compound 491, 6-[(1-acetyl-4-piperidyl)amino]-N-[(2S)-2-hydroxy-3-[2-[(4-methyloxazol-5-yl)methoxy]-7,8-dihydro-5H-1,6-naphthyridin-6-yl]propyl]pyrimidine-4-carboxamide] | ≥ 5000 nM | 1000 to 10000 nM | C* (an IC50 ratio of less than 3 fold between the IC50 in the HAP1 MTAP-intact cell line and the HAP1 MTAP-deleted cell line) | 50 to 500 nM | ≥ 10000 nM | 50 to 500 nM | A (a Ki ratio greater than or equal to 10 fold between the Ki in the presence of SAM and the Ki in the presence of MTA) | – | – |
| CC(=O)N1CCC(Nc2cc(C(=O)NC[C@H](O)CN3CCc4cc(OCc5ocnc5C)ccc4C3)cc(N3CCCCC3)n2)CC1 [Compound 587, 2-[(1-acetylpiperidin-4-yl)amino]-N-[(2S)-2-hydroxy-3-{6-[(4-methyl-1,3-oxazol-5-yl)methoxy]-1,2,3,4-tetrahydroisoquinolin-2-yl}propyl]-6-(piperidin-1-yl)pyridine-4-carboxamide] | 500 to 5000 nM | < 1000 nM | A* (an IC50 ratio greater than or equal to 10 fold between the IC50 in the HAP1 MTAP-intact cell line and the HAP1 MTAP-deleted cell line) | 50 to 500 nM | 1000 to 10000 nM | 50 to 500 nM | A (a Ki ratio greater than or equal to 10 fold between the Ki in the presence of SAM and the Ki in the presence of MTA) | – | – |
| CC(=O)N1CCC(Nc2cc(C(=O)NC[C@H](O)CN3CCc4cc(OCc5ocnc5C)ccc4C3)cc(N(C)C3CCC3)n2)CC1 [Compound 628, (S)-2-((1-acetylpiperidin-4-yl)amino)-6-(cyclobutyl(methyl)amino)-N-(2-hydroxy-3-(6-((4-methyloxazol-5-yl)methoxy)-3,4-dihydroisoquinolin-2(1H)-yl)propyl)isonicotinamide] | – | < 1000 nM | B* (an IC50 ratio greater than or equal to 3 fold but lower than 10 fold between the IC50 in the HAP1 MTAP-intact cell line and the HAP1 MTAP-deleted cell line) | 50 to 500 nM | 1000 to 10000 nM | < 50 nM | – | 500 to 5000 nM | A (a Ki ratio greater than or equal to 10 fold between the Ki in the presence of SAM and the Ki in the presence of MTA) |
| CC(=O)N1CCC(Nc2cc(C(=O)NC[C@H](O)CN3CCc4cc(OCc5ocnc5C)ccc4C3)cc(N3CCN(C(C)=O)CC3)n2)CC1 [Compound 594, 2-(4-acetylpiperazin-1-yl)-6-[(1-acetylpiperidin-4-yl)amino]-N-[(2S)-2-hydroxy-3-{6-[(4-methyl-1,3-oxazol-5-yl)methoxy]-1,2,3,4-tetrahydroisoquinolin-2-yl}propyl]pyridine-4-carboxamide] | 500 to 5000 nM | 1000 to 10000 nM | C* (an IC50 ratio of less than 3 fold between the IC50 in the HAP1 MTAP-intact cell line and the HAP1 MTAP-deleted cell line) | 50 to 500 nM | ≥ 10000 nM | 50 to 500 nM | A (a Ki ratio greater than or equal to 10 fold between the Ki in the presence of SAM and the Ki in the presence of MTA) | – | – |
| CCCN(C)c1nc(NC2COC2)cc(C(=O)NC[C@H](O)CN2CCc3c(ccc(OCc4ocnc4C)c3C)C2)n1 [Compound 465, N-[(2K)-2-hydroxy-3-{5-methyl-6-[(4-methyl-1,3-oxazol-5-yl)methoxy]-1,2,3,4-tetrahydroisoquinolin-2-yl}propyl]-2-[methyl(propyl)amino]-6-[(oxetan-3-yl)amino]pyrimidine-4-carboxamide] | ≥ 5000 nM | 1000 to 10000 nM | B* (an IC50 ratio greater than or equal to 3 fold but lower than 10 fold between the IC50 in the HAP1 MTAP-intact cell line and the HAP1 MTAP-deleted cell line) | 50 to 500 nM | ≥ 10000 nM | 50 to 500 nM | A (a Ki ratio greater than or equal to 10 fold between the Ki in the presence of SAM and the Ki in the presence of MTA) | – | – |
| CCCC(=O)N1CCC(Nc2cc(C(=O)NC[C@H](O)CN3CCc4c(ccc(OCc5cnco5)c4C)C3)ncn2)CC1 [Compound 560, 6-[(1-butanoylpiperidin-4-yl)amino]-N-[(2S)-2-hydroxy-3-{5-methyl-6-[(1,3-oxazol-5-yl)methoxy]-1,2,3,4-tetrahydroisoquinolin-2-yl}propyl]pyrimidine-4-carboxamide] | 500 to 5000 nM | 1000 to 10000 nM | B* (an IC50 ratio greater than or equal to 3 fold but lower than 10 fold between the IC50 in the HAP1 MTAP-intact cell line and the HAP1 MTAP-deleted cell line) | 50 to 500 nM | ≥ 10000 nM | 50 to 500 nM | A (a Ki ratio greater than or equal to 10 fold between the Ki in the presence of SAM and the Ki in the presence of MTA) | – | – |
| Cc1ncoc1COc1ccc2c(c1C)CCN(C[C@@H](O)CNC(=O)c1cc(NC3CCC3)nc(N3CCN(C)CC3)c1)C2 [Compound 503, 2-(cyclobutylamino)-N-[(2S)-2-hydroxy-3-{5-methyl-6-[(4-methyl-1,3-oxazol-5-yl)methoxy]-1,2,3,4-tetrahydroisoquinolin-2-yl}propyl]-6-(4-methylpiperazin-1-yl)pyridine-4-carboxamide] | 500 to 5000 nM | < 1000 nM | A* (an IC50 ratio greater than or equal to 10 fold between the IC50 in the HAP1 MTAP-intact cell line and the HAP1 MTAP-deleted cell line) | 50 to 500 nM | ≥ 10000 nM | 50 to 500 nM | A (a Ki ratio greater than or equal to 10 fold between the Ki in the presence of SAM and the Ki in the presence of MTA) | – | – |
| CC(=O)N1CCC(Nc2cc(C(=O)NC[C@H](O)CN3CCc4c(ccc(OCc5ccnn5C)c4Cl)C3)ncn2)CC1 [Compound 242, (S)-6-((1-acetylpiperidin-4-yl)amino)-N-(3-(5-chloro-6-((1-methyl-1H-pyrazol-5-yl)methoxy)-3,4-dihydroisoquinolin-2(1H)-yl)-2-hydroxypropyl)pyrimidine-4-carboxamide] | – | ≥ 10000 nM | C* (an IC50 ratio of less than 3 fold between the IC50 in the HAP1 MTAP-intact cell line and the HAP1 MTAP-deleted cell line) | 500 to 5000 nM | ≥ 10000 nM | 500 to 5000 nM | – | ≥ 5000 nM | – |
| Cc1ncoc1COc1ccc2c(c1Cl)CCN(C[C@@H](O)CNC(=O)c1ccnc(NC3CCC3)c1)C2 [Compound 252, (S)—N-(3-(5-chloro-6-((4-methyloxazol-5-yl)methoxy)-3,4-dihydroisoquinolin-2(1H)-yl)-2-hydroxypropyl)-2-(cyclobutylamino)isonicotinamide] | – | 1000 to 10000 nM | C* (an IC50 ratio of less than 3 fold between the IC50 in the HAP1 MTAP-intact cell line and the HAP1 MTAP-deleted cell line) | 50 to 500 nM | ≥ 10000 nM | 50 to 500 nM | – | ≥ 5000 nM | A (a Ki ratio greater than or equal to 10 fold between the Ki in the presence of SAM and the Ki in the presence of MTA) |
